Where only a bound is given, the exact number is not on record here.

The test deals with Macrophage metalloelastase (Homo sapiens, UniProt P39900). Put plainly: Inhibition of MMP12.
Macrophage metalloelastase, sequence (P39900 whole entry): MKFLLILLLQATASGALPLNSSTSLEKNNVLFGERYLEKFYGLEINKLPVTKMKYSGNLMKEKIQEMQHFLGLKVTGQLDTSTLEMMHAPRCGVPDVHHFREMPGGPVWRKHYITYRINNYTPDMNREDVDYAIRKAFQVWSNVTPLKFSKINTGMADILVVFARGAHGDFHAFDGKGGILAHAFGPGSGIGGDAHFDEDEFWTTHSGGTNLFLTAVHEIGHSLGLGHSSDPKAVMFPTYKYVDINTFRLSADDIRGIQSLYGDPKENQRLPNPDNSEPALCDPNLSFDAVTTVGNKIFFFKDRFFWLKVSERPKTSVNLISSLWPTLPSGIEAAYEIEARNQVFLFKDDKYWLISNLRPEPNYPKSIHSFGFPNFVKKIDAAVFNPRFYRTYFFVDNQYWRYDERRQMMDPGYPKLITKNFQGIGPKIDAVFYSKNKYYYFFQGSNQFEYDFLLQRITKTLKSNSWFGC
The term IC50 denotes the concentration that inhibits the measured activity by half. Lower therefore signals greater potency in that assay. As for `CNc1nc2c(-c3cc(Br)c(Br)[nH]3)nccc2n1C`, the half-maximal inhibitory concentration (IC50) is greater than 100 µM.
`Nc1nc2c(-c3cc(Br)c[nH]3)nccc2[nH]1` yielded a half-inhibitory concentration (IC50) greater than 100 µM.
In the case of `Brc1cc(-c2nccc3[nH]cnc23)[nH]c1Br`, the midpoint of inhibition, the IC50, lay at 43.6 µM.
To `Nc1nc2c(-c3ccc[nH]3)nccc2[nH]1` belongs greater than 100 µM; to `CN(C)c1nc2c(-c3cc(Br)c(Br)[nH]3)nccc2[nH]1`, greater than 100 µM; to `Nc1nc2c(-c3ccc(Br)[nH]3)nccc2[nH]1`, greater than 100 µM.
Take `Cn1c(-c2nccc3[nH]c(N)nc23)cc(Br)c1Br`: the IC50 is greater than 100 µM.
As for `Cn1c(N)nc2c(-c3cc(Br)c(Br)[nH]3)nccc21`, the figure is 56.9 µM.
The molecule `Nc1nc2c(-c3cc(Br)c(Br)[nH]3)nccc2[nH]1` [AGELADINE A] returned an IC50 of 3.66 µM.
With `CNc1nc2c(-c3cc(Br)c(Br)[nH]3)nccc2[nH]1`, the 50% inhibitory concentration (IC50) worked out at 10.4 µM.

The values are drawn from ChEMBL document CHEMBL1145438, “Synthesis and matrix metalloproteinase (MMP)-12 inhibitory activity of ageladine A and its analogs” (Bioorg Med Chem Lett, 2007).
